Measurements taken from patent publication US8563744B2, “3-amino-benzo [D] isothiazole dioxide derivatives and their use as pesticides” (Syngenta Crop Protection, LLC, priority 2008, dated 2013).

Tests used:
Type in all cases: in vivo
Myzus persicae [1] = experiment: B2: Myzus persicae (green peach aphid), mixed population, feeding/residual contact activity, preventive; conditions: foliar, 144 h, sunflower leaf discs sprayed with test solutions of 200 ppm, aphid population of mixed ages, 6 days incubation, read-out: control of Myzus persicae (mortality)
Procedure: B2: Myzus persicae (green peach aphid) (mixed population, feeding/residual contact activity, preventive)
Sunflower leaf discs are placed on agar in a 24-well microtiter plate and sprayed with test solutions of 200 ppm. After drying, the leaf discs are infested with an aphid population of mixed ages. After an incubation period of 6 days, samples are checked for mortality and special effects (e.g. phytotoxicity).

Myzus persicae [2] = experiment: B3: Myzus persicae (green peach aphid), mixed population, systemic/feeding activity, curative; conditions: 144 h, roots of infested pea seedlings placed in test solutions of 24 ppm, 6 days after introduction, read-out: control of Myzus persicae (mortality)
Text: B3: Myzus persicae (green peach aphid) (mixed population, systemic/feeding activity, curative)
Roots of pea seedlings, infested with an aphid population of mixed ages, are placed directly in the test solutions of 24 ppm. 6 days after introduction, samples are checked for mortality and special effects on the plant.

Myzus persicae [3] = experiment: B1: Myzus persicae (green peach aphid), mixed population, sachet test; conditions: 144 h, 12.5 ppm test compound in 30% sucrose solution, parafilm sachet, 6 days after infestation, read-out: control of Myzus persicae (mortality, feeding activity)
Procedure: B1: Myzus persicae (green peach aphid) (mixed population, sachet test)
Each well of a 24-well microtiter plate is filled with 0.6 ml 30% sucrose solution, containing 12.5 ppm of the test compounds. For producing the sachets, the wells are covered with streched parafilm and infested with a mixed population of Myzus persicae. 6 days after the infestation, samples are checked for mortality (feeding activity).

Row | Structure (SMILES) | mortality at 200 ppm (Myzus persicae [1]) | mortality at 24 ppm (Myzus persicae [2]) | mortality at 12.5 ppm (Myzus persicae [3])
1 | CNC1=NS(=O)(=O)c2c(F)cccc21 [Compound P1.15, (7-Fluoro-1,1-dioxo-1H-1λ^6-benzo[d]isothiazol-3-yl)-methyl-amine] | ≥ 80% | ≥ 80% | –
2 | NC1=NS(=O)(=O)c2c(Br)cccc21 [Compound P1.1, 7-bromo-1,1-dioxo-1H-1λ^6-benzo[d]isothiazol-3-ylamine] | ≥ 80% | ≥ 80% | –
3 | CC(C)N1C(=N)c2cccc(Br)c2S1(=O)=O [Compound P2.1, 7-bromo-2-isopropyl-1,1-dioxo-1,2-dihydro-1λ^6-benzo[d]isothiazol-3-ylideneamine] | – | – | ≥ 80%
